Legend:
NME1 [1] = biological target: T1, NME1 (Mus musculus, UniProt P15532); assay: histidine phosphorylation (native gel, native MS); release of NME1 from CoA beads; format: biochemical; set-up: full-length recombinant
NME1 [2] = biological target: T1, NME1; assay: dephosphorylation of phosphohistidine NME1 (immunoblot); format: biochemical; set-up: full-length recombinant
NME1 [3] = biological target: T1, NME1; assay: ITC; crystal structure ([…] Å), native MS, nanoDSF; format: binding; set-up: full-length, His-tag cleaved by TEV
NME2 = biological target: T2, NME2 (Mus musculus, UniProt Q01768); assay: CoA-agarose pull-down of GST-NME2 from bacterial extract; format: cell-based
T2 construct: full-length, GST-tagged
T2 sequence (Q01768 whole entry): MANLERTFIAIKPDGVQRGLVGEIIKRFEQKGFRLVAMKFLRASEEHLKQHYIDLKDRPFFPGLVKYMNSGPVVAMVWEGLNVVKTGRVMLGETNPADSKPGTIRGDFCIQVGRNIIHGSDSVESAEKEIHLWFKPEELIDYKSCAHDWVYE

[4] = biological target: the molecule itself; assay: native MS; recombinant purified NME1 without ligand or incubated with CoA, AcCoA, SucCoA, dephospho-CoA or ATP; charge states +22 and +21 of the hexamer; methods in the Supplementary Materials

Nc1ncnc2c1ncn2[C@@H]1O[C@H](COP(=O)(O)OP(=O)(O)OP(=O)(O)O)[C@@H](O)[C@H]1O [ATP]
histidine phosphorylation (native gel, native MS); release of NME1 from CoA bead (NME1 [1]): recombinant murine NME1 purified from bacteria could be phosphorylated by ATP and subsequently dephosphorylated by ADP or guanosine diphosphate (GDP)

Nc1nc2c(ncn2[C@@H]2O[C@H](CO[P@](=O)(O)OP(=O)(O)O)[C@@H](O)[C@H]2O)c(=O)[nH]1 [GDP]
dephosphorylation of phosphohistidine NME1 (immunoblot) (NME1 [2]): phosphorylated by ATP and subsequently dephosphorylated by ADP or guanosine diphosphate (GDP)

CC(C)(COP(=O)(O)OP(=O)(O)OC[C@H]1O[C@@H](n2cnc3c(N)ncnc32)[C@H](O)[C@@H]1OP(=O)(O)O)[C@@H](O)C(=O)NCCC(=O)NCCS [CoA]
Kd (NME1 [3]): ~18 µM
CoA-agarose pull-down of GST-NME2 from bacterial extract (NME2): NME2 exhibits an ATP-sensitive CoA binding activity comparable to that of NME1 (fig. S11A)

B1: nucleoside diphosphate kinase 1 (NME1), recombinant murine (enzyme, mouse, UniProt P15532 1-152, looked up)
chain: MANSERTFIAIKPDGVQRGLVGEIIKRFEQKGFRLVGLKFLQASEDLLKEHYTDLKDRPFFTGLVKYMHSGPVVAMVWEGLNVVKTGRVMLGETNPADSKPGTIRGDFCIQVGRNIIHGSDSVKSAEKEISLWFQPEELVEYKSCAQNWIYE
notes: also called NDPK 1; WT NME1; source: E. coli BL21-Gold(D3), purified (HisTrap, TEV cleavage, Superdex 200 SEC); not shown: His6, N-terminal, cleaved
stoichiometry N [4]: 6
